Laboratory results reported in US10947213B1 (Merck Patent GmbH, priority 2015, dated 2021).
Structures can show the parent of a compound that is named as a salt.

Molecular target: T1, TLR7/NFKb HEK cells (Homo sapiens, UniProt Q9NYK1)
T1 construct: expressed in transfected cells; host or cells: HEK cells (TLR7/NFKb reporter line)
T1 sequence (Q9NYK1 27-1049): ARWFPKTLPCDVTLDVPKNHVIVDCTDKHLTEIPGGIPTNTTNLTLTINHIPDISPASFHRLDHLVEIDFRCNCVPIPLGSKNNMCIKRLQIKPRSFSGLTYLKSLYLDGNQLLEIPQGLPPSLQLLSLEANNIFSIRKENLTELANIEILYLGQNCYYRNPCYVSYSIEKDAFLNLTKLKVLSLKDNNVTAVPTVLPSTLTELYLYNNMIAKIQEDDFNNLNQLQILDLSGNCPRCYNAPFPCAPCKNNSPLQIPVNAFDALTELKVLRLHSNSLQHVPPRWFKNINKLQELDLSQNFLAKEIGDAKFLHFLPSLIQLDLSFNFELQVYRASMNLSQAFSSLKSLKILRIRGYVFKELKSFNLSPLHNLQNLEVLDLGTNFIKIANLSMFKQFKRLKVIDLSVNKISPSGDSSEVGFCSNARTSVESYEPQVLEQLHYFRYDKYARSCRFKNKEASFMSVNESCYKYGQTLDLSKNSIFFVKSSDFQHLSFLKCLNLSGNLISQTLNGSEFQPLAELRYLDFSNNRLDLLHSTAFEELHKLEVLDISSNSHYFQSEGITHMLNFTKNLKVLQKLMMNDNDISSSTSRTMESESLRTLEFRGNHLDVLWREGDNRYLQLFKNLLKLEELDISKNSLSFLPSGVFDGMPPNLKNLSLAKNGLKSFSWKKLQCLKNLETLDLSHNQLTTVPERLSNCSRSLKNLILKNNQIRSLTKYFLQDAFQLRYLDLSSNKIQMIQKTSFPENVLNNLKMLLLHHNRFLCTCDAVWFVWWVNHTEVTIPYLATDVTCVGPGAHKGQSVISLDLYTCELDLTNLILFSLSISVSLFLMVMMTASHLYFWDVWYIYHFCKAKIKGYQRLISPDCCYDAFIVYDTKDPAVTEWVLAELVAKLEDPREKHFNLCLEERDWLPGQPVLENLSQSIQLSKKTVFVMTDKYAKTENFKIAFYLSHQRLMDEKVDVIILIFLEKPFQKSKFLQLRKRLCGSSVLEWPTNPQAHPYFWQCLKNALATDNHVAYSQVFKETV
Test: HEK Cell Assay (TLR7/NFKb reporter, Steady-Glo luciferase readout)
Format: cell-based
Conditions: 30 min compound preincubation, then R*48 agonist for 5 hours, read-out: Potency
Procedure, shortened: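 Steady-Glo luminescence after 5 h stimulation with R*48 agonist, following 30 min compound preincubation. Assay run in HEK cells carrying a TLR7/NFKb luciferase reporter, plated at 5000 cells/well and grown 24 h at 37° C (10% CO2) before treatment.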

IC50	Structure (SMILES)
1000 to 10000 nM	C[C@@H]1CN(c2ccc(C#N)c3ncncc23)C[C@H](C)O1 [Compound 393, cis-5-(2,6-Dimethyl-morpholin-4-yl)-quinazoline-8-carbonitrile]
1000 to 10000 nM	CN(C)CC(=O)NCC1CCN(c2ccnc3nccnc23)CC1 [Compound 394, 2-Dimethylamino-N-(1-pyrido[2,3-b]pyrazin-8-yl-piperidin-4-ylmethyl)-acetamide]
1000 to 10000 nM	CCN(CC)CC(=O)NCC1CCN(c2ccc(C#N)c3ncncc23)CC1 [Compound 395, N-[1-(8-Cyano-quinazolin-5-yl)-piperidin-4-ylmethyl]-2-diethylamino-acetamide]
> 10000 nM	CCN(CC)CCC(=O)NC1CCN(c2ccnc3nccnc23)CC1 [Compound 396, 3-Diethylamino-N-(1-pyrido[2,3-b]pyrazin-8-yl-piperidin-4-yl)-propionamide]
1000 to 10000 nM	CCN(CC)CCNC(=O)C1CCN(c2ccc(C#N)c3ncncc23)CC1 [Compound 397, 1-(8-Cyano-quinazolin-5-yl)-piperidine-4-carboxylic acid (2-diethylamino-ethyl)-amide]
< 1000 nM	CCN(CC)CC(=O)NCC1CCN(c2ccc(C#N)c3ncccc23)CC1 [Compound 398, N-[1-(8-Cyano-quinolin-5-yl)-piperidin-4-ylmethyl]-2-diethylamino-acetamide]
> 10000 nM	CC(C)(C)CC(=O)NCC1CCN(c2ccnc3nccnc23)CC1 [Compound 399, 3,3-Dimethyl-N-(1-pyrido[2,3-b]pyrazin-8-yl-piperidin-4-ylmethyl)-butyramide]
> 10000 nM	O=C(CCCN1CCCCC1)N1CCN(c2ccnc3nccnc23)CC1 [Compound 400, 4-Piperidin-1-yl-1-(4-pyrido[2,3-b]pyrazin-8-yl-piperazin-1-yl)-butan-1-one]
1000 to 10000 nM	CCN(CC)CCNCC1CCN(c2ccc(C#N)c3ncccc23)CC1 [Compound 401, 5-{4-[(2-Diethylamino-ethylamino)-methyl]-piperidin-1-yl}-quinoline-8-carbonitrile]
1000 to 10000 nM	O=C(CN1CCC1)NCC1CCN(c2ccnc3nccnc23)CC1 [Compound 402, 2-Azetidin-1-yl-N-(1-pyrido[2,3-b]pyrazin-8-yl-piperidin-4-ylmethyl)-acetamide]
< 1000 nM	N#Cc1ccc(N2CCC(C(=O)NCCN3CCCCC3)CC2)c2cccnc12 [Compound 403, 1-(8-Cyano-quinolin-5-yl)-piperidine-4-carboxylic acid (2-piperidin-1-yl-ethyl)-amide]
> 10000 nM	COc1cccc(NCC(=O)NCC2CCN(c3ccnc4nccnc34)CC2)c1 [Compound 404, 2-(3-Methoxy-phenylamino)-N-(1-pyrido[2,3-b]pyrazin-8-yl-piperidin-4-ylmethyl)-acetamide]
1000 to 10000 nM	CCN(CC)CC(=O)N(C)CC1CCN(c2ccnc3nccnc23)CC1 [Compound 405, 2-Diethylamino-N-methyl-N-(1-pyrido[2,3-b]pyrazin-8-yl-piperidin-4-ylmethyl)-acetamide]
1000 to 10000 nM	CC(C)(C)NCC(=O)NCC1CCN(c2ccnc3nccnc23)CC1 [Compound 406, 2-tert-Butylamino-N-(1-pyrido[2,3-b]pyrazin-8-yl-piperidin-4-ylmethyl)-acetamide]
< 1000 nM	CCN(CC)CCNC(=O)C1CCN(c2ccc(C#N)c3ncccc23)CC1 [Compound 407, 1-(8-Cyano-quinolin-5-yl)-piperidine-4-carboxylic acid (2-diethylamino-ethyl)-amide]
1000 to 10000 nM	CCN(C)CC(=O)NCC1CCN(c2ccnc3nccnc23)CC1 [Compound 408, 2-(Ethyl-methyl-amino)-N-(1-pyrido[2,3-b]pyrazin-8-yl-piperidin-4-ylmethyl)-acetamide]
< 1000 nM	N#Cc1ccc(N2CCC(CNC(=O)CN3CCCCC3)CC2)c2cccnc12 [Compound 409, N-[1-(8-Cyano-quinolin-5-yl)-piperidin-4-ylmethyl]-2-piperidin-1-yl-acetamide]

IC50	Structure (SMILES)
< 1000 nM	CCN(C)CC(=O)NCC1CCN(c2ccc(C#N)c3ncccc23)CC1 [Compound 410, N-[1-(8-Cyano-quinolin-5-yl)-piperidin-4-ylmethyl]-2-(ethyl-methyl-amino)-acetamide]
1000 to 10000 nM	CN1CCCC1C(=O)NCC1CCN(c2ccnc3nccnc23)CC1 (centres unmarked) [Compound 411, 1-Methyl-pyrrolidine-2-carboxylic acid (1-pyrido[2,3-b]pyrazin-8-yl-piperidin-4-ylmethyl)-amide]
< 1000 nM	CC(C)(C)NCC(=O)NCC1CCN(c2ccc(C#N)c3ncccc23)CC1 [Compound 413, 2-tert-Butylamino-N-[1-(8-cyano-quinolin-5-yl)-piperidin-4-ylmethyl]-acetamide]
< 1000 nM	CC1CCCC(C)N1CCNC(=O)C1CCN(c2ccc(C#N)c3ncccc23)CC1 (centres unmarked) [Compound 414, 1-(8-Cyano-quinolin-5-yl)-piperidine-4-carboxylic Acid [2-(2,6-dimethyl-piperidin-1-yl)-ethyl]-amide]
< 1000 nM	CN(C)CCNC(=O)C1CCN(c2ccc(C#N)c3ncccc23)CC1 [Compound 415, 1-(8-Cyano-quinolin-5-yl)-piperidine-4-carboxylic Acid (2-dimethylamino-ethyl)-amide]
< 1000 nM	CCN(C)CCNC(=O)C1CCN(c2ccc(C#N)c3ncccc23)CC1 [Compound 416, 1-(8-Cyano-quinolin-5-yl)-piperidine-4-carboxylic Acid [2-(ethyl-methyl-amino)-ethyl]-amide]
< 1000 nM	N#Cc1ccc(N2CCC(CNC(=O)CN3CCC3)CC2)c2cccnc12 [Compound 417, 2-Azetidin-1-yl-N-[1-(8-cyano-quinolin-5-yl)-piperidin-4-ylmethyl]-acetamide]
< 1000 nM	CN1CCCC1C(=O)NCC1CCN(c2ccc(C#N)c3ncccc23)CC1 (centres unmarked) [Compound 418, 1-Methyl-pyrrolidine-2-carboxylic acid [1-(8-cyano-quinolin-5-yl)-piperidin-4-ylmethyl]-amide]
1000 to 10000 nM	N#Cc1ccc(N2CCC(C(=O)NCCN3CCOCC3)CC2)c2cccnc12 [Compound 419, 1-(8-Cyano-quinolin-5-yl)-piperidine-4-carboxylic Acid (2-morpholin-4-yl-ethyl)-amide]
< 1000 nM	CC(CN(C)C)NC(=O)C1CCN(c2ccc(C#N)c3ncccc23)CC1 (centres unmarked) [Compound 420, 1-(8-Cyano-quinolin-5-yl)-piperidine-4-carboxylic Acid (2-dimethylamino-1-methyl-ethyl)-amide]
< 1000 nM	CN1CCN(CCNC(=O)C2CCN(c3ccc(C#N)c4ncccc34)CC2)CC1 [Compound 421, 1-(8-Cyano-quinolin-5-yl)-piperidine-4-carboxylic Acid [2-(4-methyl-piperazin-1-yl)-ethyl]-amide]
< 1000 nM	N#Cc1ccc(N2CCC(C(=O)NCCN3CCCC3)CC2)c2cccnc12 [Compound 422, 1-(8-Cyano-quinolin-5-yl)-piperidine-4-carboxylic Acid (2-pyrrolidin-1-yl-ethyl)-amide]
< 1000 nM	N#Cc1ccc(N2CC(N)CC(F)(F)C2)c2cccnc12 (centres unmarked) [Compound 423, 5-(5-Amino-3,3-difluoro-piperidin-1-yl)-quinoline-8-carbonitrile hydrochloride]
< 1000 nM	CN(C)CC(=O)NC1CN(c2ccc(C#N)c3ncccc23)CC(F)(F)C1 (centres unmarked) [Compound 425, N-[1-(8-Cyano-quinolin-5-yl)-5,5-difluoro-piperidin-3-yl]-2-dimethylamino-acetamide]
1000 to 10000 nM	N#Cc1ccc(N2CCC(C(=O)NCCN3CCC(F)(F)CC3)CC2)c2cccnc12 [Compound 427, 1-(8-Cyano-quinolin-5-yl)-piperidine-4-carboxylic Acid [2-(4,4-difluoro-piperidin-1-yl)-ethyl]-amide]
< 1000 nM	CCN(CC)CCNC(=O)C1CCN(c2ccc(C#N)c3nccnc23)CC1 [Compound 432, 1-(8-Cyano-quinoxalin-5-yl)-piperidine-4-carboxylic acid (2-diethylamino-ethyl)-amide]
< 1000 nM	CN1CCCC1CNC(=O)C1CCN(c2ccc(C#N)c3ncccc23)CC1 (centres unmarked) [Compound 433, 1-(8-Cyano-quinolin-5-yl)-piperidine-4-carboxylic Acid (1-methyl-pyrrolidin-2-ylmethyl)-amide]

Structure (SMILES)	IC50
CC(C)(C)OCC(=O)NCC1CCN(c2ccc(C#N)c3ncccc23)CC1 [Compound 412, 2-tert-Butoxy-N-[1-(8-cyano-quinolin-5-yl)-piperidin-4-ylmethyl]-acetamide]	> 10000 nM
